In experiment [1] the test system is tested cancer cell lines. Kind of experiment: Cell growth inhibition by SRB method, tested cancer cell lines overall. It counts as cell-based, human. As to conditions: data not provided. An excerpt:
Six human cancer cell lines have been used to evaluate effects of the compounds on proliferation of cancer cells. These cell lines include HCC827-P (or HCC827 parent cells), human non-small lung cancer cells, Parent NSCLC HCC827 cell line (which harbors EGFR gene amplification, Exon 19 (E19) deletion, and Exon 21 mutation (Wang, Ramakrishnan et al. 2010), and is an EGFRi sensitive cell line (Kim, Kim et al. 2010)); HCC827-TR16 (Tarceva-resistant HCC727 cell line), HCC827-OR16 (AZD9291-resistant HCC727 cell line), LNCaP (human prostate cancer cells—a hormonal-therapy sensitive cell line (Wang, Liu et al. 1997)); 22RV1 (human prostate cancer cells—a hormonal-therapy resistant cell line (Sramkoski, Pretlow et al. 1999)); and ACHN (human renal adenocarcinoma cells (Park, Jung et al. 2003)). LNCaP cells and 22RV1 cells were purchased from the American Type Culture Collection (Rockville, Md.) and others were gifts of friends.
All cell lines were maintained in RPMI-1640 (GIBCO, Gaithersburg, Md.) with 10% heat-inactivated bovine serum (FBS) (Wang, Ossowski et al. 2004).
Sulforhodamine B (SRB) was used to estimate cell growth as described previously (Skehan, Storeng et al. 1990). Briefly, cells grown exponentially were aliquoted into 96-well plates at a density of 2,500 to 5,000 cells/200 μl per well in RPMI 1640 medium containing 10% FBS. After twenty-four hours, the cells were exposed to indicated concentrations of tested compounds for 72 hrs or otherwise as indicated. The cells were then fixed with 10% trichloride acetic acid for 2 h at 4° C. The 10% trichloride acetic acid was removed, and the dishes were washed 5 times with tape water, and air-dried. The fixed and dried cells were then stained with 0.4% SRB in 1% acetic acid for 25 min, and the dishes were washed 5 times with 1% acetic acid and air-dried overnight. 200 μl of 10 mM of Tris buffer (pH 10.0) were added, and the dishes were rotated to completely dissolve the color. Absorbance at 570 nm, with a reference wavelength 690 nm, was measured on a 96-well microplate reader (SPECTRO Star^Nano, BMG Labtech). Mean, standard deviation (SD) and the percent of growth inhibition at each concentration point of the treatment were calculated. The percent of growth inhibition as defined as (1−T/C)×100 where T is the mean of the absorbance at 570 nm from the treatment, and C from control (drug vehicle only). IC50 was calculated using Sigma-plot software by regression of growth-concentration curve from each drug treatment.
For orientation: Sulforhodamine B stains cellular protein and so reports cell mass.

Experiment [2] deals with T1, EGFR (G719S) (Homo sapiens, UniProt P00533, G719S).
T1 construct: made in house; host or cells: cell-free system (rabbit reticulocyte lysate)
Kind of experiment: KinaseSeeker competition binding assay. How it is done: (§1) Compound Reno647 was profiled against the following panel of kinases at 2 μM using the KinaseSeeker™ assay: ABL1, AKT1, AKT2, AKT3, ALK, AURKA, AXL, BRAF, BTK, CDK2, CDK5, CDK7, CDK8, CSF1R, DDR1, EGFR del L747-P753 InsS, EGFR (L861Q), EGFR (G719S), EGFR, EGFR (L858R), EPHA2, EPHB2, FGFR3, FLT1/VEGFR1, FLT2/FGFR1, FLT3, FLT4/VEGFR3, GSK-3a, HER2, IGF1R, INSR, KIT, LIMK1, MET, MLK2/MAP3K10, RPS6KA5/MSK1, MUSK, p38a/MAPK12, PDGFRA, PDGFRB, PDK1, RET, RIPK2, RPS6KA1/RSK1, SRC, TEC, TESK1, TRKB, VEGFR2, and YES 1.
(§2) KinaseSeeker is a homogeneous competition binding assay where the displacement of an active site dependent probe by an inhibitor is measured by a change in luminescence signal (see FIG. 7). Luminescence readout translates into a highly sensitive and robust assay with low background and minimal interference from test compounds.
(§3) (Jester, Cox et al. 2010; Jester, Gaj et al. 2012): 10 mM stock of compound Reno647 was diluted in DMSO to a concentration of 50 μM. Prior to initiating a profiling campaign, the compound was evaluated for false positive against split-luciferase. The compound was then screened in duplicate against each of the kinases. For kinase assays, each Cfluc-Kinase was translated along with Fos-Nfluc using a cell-free system (rabbit reticulocyte lysate) at 30° C. for 90 min. A 24 μL aliquot of this lysate containing either 1 μL of DMSO (for no-inhibitor control) or compound solution in DMSO (2 LM final concentration) was incubated for 30 minutes at room temperature followed by 1 hour in the presence of a kinase specific probe. A 80 μL of luciferin assay reagent was added to each solution and luminescence was immediately measured on a luminometer.
(§4) The % Inhibition and % Activity Remaining were calculated using the following equations:
(§5) % inhibition=(ALUcontrol−ALUsample)×100
(§6) % activity=100−% inhibition.
(§7) The same assay design was used as described in example section 3.1.
(§8) 10 mM stock solutions of compound Reno647 was serially diluted in DMSO to make assay stocks. Prior to initiating IC50 determination, the test compound was evaluated for false positive against split-luciferase.
(§9) Reno647 was screened against 6 kinases (EGFR, EGFR del L747 P753 InsS, EGFR G719S, EGFR L858R, EGFR L861Q, RIPK2) at a minimum of 8 different concentrations in duplicate. For kinase assays, a 24 μL aliquot of lysate containing Cfluc-kinase and Fos-Nfluc was incubated for 30 minutes at room temperature with either 1 μL of DMSO (for no-inhibitor control) or compound solution in DMSO, followed by 1 hour incubation in the presence of a kinase specific probe. A 80 μL of luciferin assay reagent was added to each solution and luminescence was immediately measured on a luminometer.
(§10) % inhibition=(ALUcontrol−ALUsample)/ALcontrol×100
(§11) The % Activity was plotted against compound concentration and the IC50 was determined for each compound using an 8-point curve.

Experiment [3] addresses T2, EGFR (Homo sapiens, UniProt P00533).
T2 construct: made in house; host or cells: cell-free system (rabbit reticulocyte lysate)
In words: KinaseSeeker competition binding assay. How it is done: as §1, §2, §3, §4, §5, §6, §7, §8, §9, §10, §11

The target of experiment [4] is T3, EGFR (L858R) (Homo sapiens, UniProt P00533, L858R).
T3 construct: made in house; host or cells: cell-free system (rabbit reticulocyte lysate)
In words: KinaseSeeker competition binding assay. The procedure:
as §1, §2, §3, §4, §5, §6, §7, §8, §9, §10, §11

The target in experiment [5] is T4, EGFR del L747-P753 Ins S (Homo sapiens, UniProt P00533, DEL747-752/P753S).
T4 construct: made in house; host or cells: cell-free system (rabbit reticulocyte lysate)
Kind of experiment: KinaseSeeker competition binding assay. The procedure: as §1, §2, §3, §4, §5, §6, §7, §8, §9, §10, §11

For experiment [6], the target named is T5, EGFR(L861Q) (Homo sapiens, UniProt P00533, L861Q).
T5 construct: made in house; host or cells: cell-free system (rabbit reticulocyte lysate)
In words: KinaseSeeker competition binding assay. How it is done: as §1, §2, §3, §4, §5, §6, §7, §8, §9, §10, §11

Each structure is given as a SMILES string. Several values for one entry are separate records, joined by “and”; a condition that tells them apart may be missing. Equal values may be shown once.

T4 sequence (P00533 with tags, fused parts or gaps DEL747-752/P753S): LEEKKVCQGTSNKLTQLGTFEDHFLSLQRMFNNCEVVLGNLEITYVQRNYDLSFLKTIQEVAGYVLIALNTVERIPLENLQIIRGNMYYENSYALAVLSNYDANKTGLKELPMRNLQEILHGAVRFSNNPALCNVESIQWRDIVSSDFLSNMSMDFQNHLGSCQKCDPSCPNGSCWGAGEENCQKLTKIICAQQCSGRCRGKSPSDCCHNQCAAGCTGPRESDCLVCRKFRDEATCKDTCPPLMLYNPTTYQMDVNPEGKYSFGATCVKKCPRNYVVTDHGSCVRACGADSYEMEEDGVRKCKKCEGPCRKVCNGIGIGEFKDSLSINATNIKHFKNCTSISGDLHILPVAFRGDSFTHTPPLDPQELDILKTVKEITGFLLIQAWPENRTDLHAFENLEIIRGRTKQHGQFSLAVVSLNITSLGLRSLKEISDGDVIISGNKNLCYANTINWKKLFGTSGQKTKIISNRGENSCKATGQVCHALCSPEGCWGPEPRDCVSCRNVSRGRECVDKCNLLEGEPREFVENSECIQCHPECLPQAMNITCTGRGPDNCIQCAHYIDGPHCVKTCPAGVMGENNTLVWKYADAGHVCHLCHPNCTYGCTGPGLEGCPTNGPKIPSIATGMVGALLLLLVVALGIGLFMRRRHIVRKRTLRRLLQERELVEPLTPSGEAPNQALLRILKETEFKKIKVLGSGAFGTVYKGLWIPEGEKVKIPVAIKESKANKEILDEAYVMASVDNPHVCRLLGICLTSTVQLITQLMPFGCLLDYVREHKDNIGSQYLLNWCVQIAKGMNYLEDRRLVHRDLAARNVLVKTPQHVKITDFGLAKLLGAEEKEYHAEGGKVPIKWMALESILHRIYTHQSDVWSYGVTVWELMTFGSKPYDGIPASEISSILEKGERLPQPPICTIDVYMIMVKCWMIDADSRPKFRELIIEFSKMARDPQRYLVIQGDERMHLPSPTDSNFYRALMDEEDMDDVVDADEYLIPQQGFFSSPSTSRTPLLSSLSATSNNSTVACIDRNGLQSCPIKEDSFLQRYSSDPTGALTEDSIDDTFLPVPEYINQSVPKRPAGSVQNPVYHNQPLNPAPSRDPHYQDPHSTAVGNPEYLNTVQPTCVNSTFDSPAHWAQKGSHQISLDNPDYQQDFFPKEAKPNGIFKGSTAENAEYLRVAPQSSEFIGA
T1 sequence (P00533 25-1210 G719S): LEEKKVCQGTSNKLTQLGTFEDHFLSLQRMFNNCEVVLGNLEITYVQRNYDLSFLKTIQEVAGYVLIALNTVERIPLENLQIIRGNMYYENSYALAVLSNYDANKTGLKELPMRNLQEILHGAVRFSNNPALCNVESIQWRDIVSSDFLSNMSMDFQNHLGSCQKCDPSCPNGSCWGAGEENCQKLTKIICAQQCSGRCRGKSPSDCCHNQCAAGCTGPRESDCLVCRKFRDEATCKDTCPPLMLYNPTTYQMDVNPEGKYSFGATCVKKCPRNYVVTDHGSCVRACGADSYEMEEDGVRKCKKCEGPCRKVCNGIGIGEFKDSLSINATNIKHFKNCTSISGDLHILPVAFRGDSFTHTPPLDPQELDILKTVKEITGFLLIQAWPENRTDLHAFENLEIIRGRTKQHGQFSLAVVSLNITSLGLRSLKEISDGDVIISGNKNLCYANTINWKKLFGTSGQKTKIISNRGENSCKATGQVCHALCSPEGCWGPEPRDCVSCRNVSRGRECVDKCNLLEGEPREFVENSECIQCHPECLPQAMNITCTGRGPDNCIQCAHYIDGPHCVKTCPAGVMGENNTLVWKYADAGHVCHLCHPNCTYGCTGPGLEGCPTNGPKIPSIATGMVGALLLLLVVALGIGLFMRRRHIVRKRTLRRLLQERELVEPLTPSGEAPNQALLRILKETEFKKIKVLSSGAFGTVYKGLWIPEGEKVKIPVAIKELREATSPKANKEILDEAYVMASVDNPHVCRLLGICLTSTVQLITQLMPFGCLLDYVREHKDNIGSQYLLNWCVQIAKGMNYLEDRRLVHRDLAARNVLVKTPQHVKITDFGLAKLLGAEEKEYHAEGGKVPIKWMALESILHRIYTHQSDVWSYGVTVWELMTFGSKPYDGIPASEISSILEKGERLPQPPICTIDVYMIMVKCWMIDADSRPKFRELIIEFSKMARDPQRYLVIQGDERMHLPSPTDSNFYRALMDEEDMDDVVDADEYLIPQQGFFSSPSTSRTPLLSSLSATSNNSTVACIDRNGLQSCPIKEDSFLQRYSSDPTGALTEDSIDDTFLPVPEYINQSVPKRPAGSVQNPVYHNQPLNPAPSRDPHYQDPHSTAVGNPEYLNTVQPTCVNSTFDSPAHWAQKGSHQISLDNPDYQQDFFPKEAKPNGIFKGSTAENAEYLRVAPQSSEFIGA
T5 sequence (P00533 25-1210 L861Q): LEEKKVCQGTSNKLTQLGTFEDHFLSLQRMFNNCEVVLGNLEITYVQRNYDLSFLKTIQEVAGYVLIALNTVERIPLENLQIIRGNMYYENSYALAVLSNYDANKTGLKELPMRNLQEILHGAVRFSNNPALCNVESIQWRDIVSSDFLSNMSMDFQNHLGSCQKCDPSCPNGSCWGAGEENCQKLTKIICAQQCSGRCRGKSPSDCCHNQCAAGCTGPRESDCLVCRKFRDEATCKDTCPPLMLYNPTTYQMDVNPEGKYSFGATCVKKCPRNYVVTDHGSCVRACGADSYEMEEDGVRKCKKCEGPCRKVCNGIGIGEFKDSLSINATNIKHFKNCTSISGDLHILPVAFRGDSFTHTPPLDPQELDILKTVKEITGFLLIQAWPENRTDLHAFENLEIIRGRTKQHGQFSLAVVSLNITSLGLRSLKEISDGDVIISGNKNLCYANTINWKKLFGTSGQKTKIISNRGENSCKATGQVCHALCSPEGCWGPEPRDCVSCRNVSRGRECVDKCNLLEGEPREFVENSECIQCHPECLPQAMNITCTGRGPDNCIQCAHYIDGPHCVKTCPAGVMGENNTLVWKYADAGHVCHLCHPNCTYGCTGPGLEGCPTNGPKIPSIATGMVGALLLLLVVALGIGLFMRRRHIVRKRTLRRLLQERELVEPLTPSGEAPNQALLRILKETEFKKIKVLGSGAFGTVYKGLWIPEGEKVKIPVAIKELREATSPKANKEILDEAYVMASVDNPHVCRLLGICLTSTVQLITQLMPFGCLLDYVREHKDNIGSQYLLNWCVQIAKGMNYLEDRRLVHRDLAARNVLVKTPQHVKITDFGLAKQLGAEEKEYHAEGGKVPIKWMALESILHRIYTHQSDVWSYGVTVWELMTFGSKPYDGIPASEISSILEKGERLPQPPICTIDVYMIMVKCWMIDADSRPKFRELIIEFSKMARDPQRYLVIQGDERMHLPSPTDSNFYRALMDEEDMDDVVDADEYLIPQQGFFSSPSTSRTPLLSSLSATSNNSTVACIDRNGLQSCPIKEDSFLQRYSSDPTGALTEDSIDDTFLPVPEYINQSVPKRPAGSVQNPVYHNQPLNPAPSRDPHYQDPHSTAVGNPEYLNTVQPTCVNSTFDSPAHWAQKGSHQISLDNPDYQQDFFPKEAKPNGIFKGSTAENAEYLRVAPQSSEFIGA
T2 sequence (P00533 25-1210): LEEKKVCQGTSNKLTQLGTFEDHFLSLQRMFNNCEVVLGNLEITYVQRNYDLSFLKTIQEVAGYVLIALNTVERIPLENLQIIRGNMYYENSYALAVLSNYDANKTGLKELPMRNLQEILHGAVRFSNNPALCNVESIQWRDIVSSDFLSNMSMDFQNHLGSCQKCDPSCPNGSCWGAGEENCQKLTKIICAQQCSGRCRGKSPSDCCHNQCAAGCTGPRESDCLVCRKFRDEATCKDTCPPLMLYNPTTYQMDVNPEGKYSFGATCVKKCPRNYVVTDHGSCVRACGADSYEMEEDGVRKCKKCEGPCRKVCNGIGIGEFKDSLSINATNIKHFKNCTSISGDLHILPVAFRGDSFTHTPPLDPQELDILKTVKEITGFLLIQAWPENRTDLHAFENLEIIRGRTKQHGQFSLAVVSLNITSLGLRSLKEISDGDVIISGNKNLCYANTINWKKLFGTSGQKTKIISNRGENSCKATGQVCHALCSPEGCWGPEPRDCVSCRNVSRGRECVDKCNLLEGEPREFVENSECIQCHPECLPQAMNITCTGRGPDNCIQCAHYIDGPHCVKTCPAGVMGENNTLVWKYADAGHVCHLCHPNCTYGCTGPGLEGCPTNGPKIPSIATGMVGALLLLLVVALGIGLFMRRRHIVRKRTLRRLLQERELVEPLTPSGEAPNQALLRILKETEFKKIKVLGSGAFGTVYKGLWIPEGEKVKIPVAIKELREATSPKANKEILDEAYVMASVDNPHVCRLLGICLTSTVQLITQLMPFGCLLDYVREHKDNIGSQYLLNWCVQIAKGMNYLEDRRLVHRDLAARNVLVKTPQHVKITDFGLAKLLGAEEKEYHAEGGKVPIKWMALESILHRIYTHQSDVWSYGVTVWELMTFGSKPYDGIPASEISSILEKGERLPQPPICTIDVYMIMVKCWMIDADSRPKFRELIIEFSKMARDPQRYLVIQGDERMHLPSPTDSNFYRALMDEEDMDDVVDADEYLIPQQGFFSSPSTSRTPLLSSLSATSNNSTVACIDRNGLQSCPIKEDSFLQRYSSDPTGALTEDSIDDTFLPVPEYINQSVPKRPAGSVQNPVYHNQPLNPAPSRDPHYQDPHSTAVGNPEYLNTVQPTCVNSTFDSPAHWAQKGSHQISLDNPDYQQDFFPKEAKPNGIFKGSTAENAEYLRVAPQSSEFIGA

With `C#Cc1cccc(Nc2ncnc3cc(OCCOC)c(NC(=O)c4ccc(F)c([N+](=O)[O-])c4)cc23)c1` [Reno647, 4-Fluoro-N-[4-(3-ethynyl-phenylamino)-7-(2-methoxy-ethoxy)-quinazolin-6-yl]-3-nitro-benzamide], the “activities against all tested cancer cells lines compared with NK-2206 and MLN8237” value in experiment [1] is given as “better activities”. For the same compound, the remaining binding at 2 µM in experiment [2] (2 μM, EGFR (G719S)) worked out at 30.2%; in experiment [3] (2 μM, wild-type EGFR), 66.7%; in experiment [4] (2 μM, EGFR (L858R)) it was 7.2%; in experiment [5] (2 μM, EGFR del L747-P753 Ins S), 14.8%; in experiment [6] (2 μM, EGFR(L861Q)) it was 20.7%. For the same compound, the IC50 (as a rule, the midpoint of a concentration-inhibition curve) was 971 nM in experiment [2] (8-point curve, duplicate); 25000 nM in experiment [3] (8-point curve, duplicate, read-out: IC50 wild-type of EGFR); 159 nM in experiment [4] (8-point curve, duplicate); 77.7 nM and 77 nM in experiment [5] (8-point curve, duplicate, read-out: IC50 EGFR del L747-P753 InsS); 574 nM in experiment [6] (8-point curve, duplicate).
